Legend:
[1] = cited from earlier work
ISA brown hens [2] = experiment: Egg laying performance of hens fed supplemented diet (egg weight, egg production); assay type: in vivo; settings: for Egg production: 6 weeks
Protocol: (§1) Healthy ISA brown hens, 45-week old, were assigned randomly to each dietary group (control group, 8 birds; experimental group, 6 birds each). Each bird was placed in an individual cage in an environmentally controlled room (25° C., 50% relative humidity, 16L:8D). The hens were allowed for 2 weeks in which to adapt to the feed with no additives and the housing. Control birds were fed a commercial diet based on corn and soybean meal (Table 1), while birds in experimental groups were fed diets supplemented with 0.003 or 0.03% of compactin (Sigma Aldrich Korea) for 6 weeks. Feed and water were provided ad libitum throughout the experiment. Feed consumption, egg production and egg weight were recorded daily. Egg production was expressed as percent hen day production; (100×number of eggs laid)/(number of hens×days).
The effects of 0.003% or 0.03% compactin on the laying performance of 45-week old ISA brown hens were investigated (Table 2). Egg weight was maintained at more than 60 grams after 6 weeks of oral administrations of compactin at both doses. […] Maintenance of laying performance with compactin feeding is of contrast to the previous art in which atorvastatin reduced egg production down to 70% after feeding for 5-week.
Egg production and yolk cholesterol analysis was performed with 0.003 and 0.03% pravastatin administered group with the same procedure as described in Example 1 above. Hen performance was investigated by measuring egg weight and egg production as in Table 4. Pravastatin group had maintained above 80% of egg production rate after 6-week administration, same as control.
(§2) Egg production and yolk cholesterol analysis was performed with the same procedure as described in Example 1 above except 0.5 and 1% of Streptomyces cell precipitates and bioconversion reaction broth were administered instead of compactin. Hen performance was investigated by measuring egg weight and egg production as in Table 6.

ISA brown hens [3] = experiment: Egg cholesterol analysis (yolk weight, gas chromatography of yolk cholesterol) of hens fed supplemented diet; assay type: in vivo; settings: compared to control
Protocol: as §1
For egg cholesterol analysis, eggs from each bird were collected and egg yolk was separated, weighed, and sampled for analysis. Lipids from eggs were extracted by the method of Folch et al. (1957). Briefly, one gram of sample was saponified with 3 mL of 33% KOH and incubated with 30 mL of 95% methanol in a 65° C. water bath for 90 min. After saponification, 10 mL hexane and 3 mL water were added, followed by vigorous shaking for 10 min. 5α-cholestan (Sigma C-8300) was used as an internal standard. Cholesterol content was determined by a gas chromatography (Shimadzu, Japan) using column VB-1 (30 m×0.25 mm×0.25 μm, VICI Inc.) with a split ratio of 100:1 and nitrogen as carrier gas for a column flow rate of 0.54 mL/min. Injector, column, and detector temperatures were 275° C., 290° C., and 340° C., respectively. […] The average control yolk weight was 17.2 g. […] Administration of compactin caused the significant reduction in yolk weight, compared to the control with 12.8 mg cholesterol per gram of yolk. When expressed as total yolk cholesterol content, percentage changes compared to that of control were 16% and 29% at 0.003% and 0.03% compactin, respectively.
Streptomyces cell precipitates and cell culture broth after compactin bioconversion were used as cholesterol lowering supplements respectively. First, compactin bioconversion was done as following. Single colony of streptomyces carbophilus was inoculated into 100 ml R2YE in 500 ml erlenmyer flask and incubated at 27° C. at 200 rpm for 3 days. After incubation, 10 ml of seed culture was added to 100 ml of conversion media (glucose 2.0%, corn steep liquor 0.2%, K2HPO4 0.15%, yeast extract 0.1%, MgSO4.7H2O 0.15%, ZnSO47H2O 0.001%, NH4NO3 0.1%, peptone 0.1%, pH 7.0) in 500 ml flask and incubated at 27° C. at 200 rpm for 3 days. Then, filter sterilized compactin salt was added into culture up to 0.1% weight of culture and incubated for another 4 days. After bioconversion reaction, culture media was analyzed by TLC to confirm the presence of compactin and pravastatin. This culture was freeze dried for 24 hours and then used as cholesterol lowering supplements. Also Streptomyces cells were obtained from bioconversion reaction by centrifugation at 3,000×g. Streptomyces cell precipitates recovered as pellets was dried at 60° C. and used as cholesterol lowering supplements. Streptomyces cell precipitates as well as bioconversion reaction broth was dried and used as cholesterol lowering supplements as shown in Example 1. Egg production and cholesterol amount were measured afterward.
as §2

hens [4] = settings: cited from earlier work
hens [5] = settings: cited from earlier work; remark: listed apart in the source
[6] = 0.003 weight % pravastatin in feed
[7] = 0.03 weight % pravastatin in feed

Compound: CC[C@H](C)C(=O)O[C@H]1CCC=C2C=C[C@H](C)[C@H](CC[C@@H]3C[C@@H](O)CC(=O)O3)[C@H]21 [Compactin, compactin]
- Toxicity in clinical trials [1]: serious toxicity
- Difference in egg production compared to the control group (ISA brown hens [2]; in vivo): did not cause any difference in egg production
- Reduction rates in the production of eggs (ISA brown hens [2]; in vivo): at most 5%
- Cholesterol content change (ISA brown hens [3]; 0.003 weight % compactin in feed): −16%
- Cholesterol content change (ISA brown hens [3]; 0.003 weight % compactin in feed, listed as compactin): -16%
- Cholesterol content change (ISA brown hens [3]; 0.03 weight % compactin in feed): −29%
- Cholesterol content change (ISA brown hens [3]; 0.03 weight % compactin in feed, listed as compactin): -29%

Compound: CC(C)c1c(C(=O)Nc2ccccc2)c(-c2ccccc2)c(-c2ccc(F)cc2)n1CC[C@@H](O)C[C@@H](O)CC(=O)O [atorvastatin]
- Reduction of egg production versus control group (hens [4]; 2, 3 and 4 weeks after administration, Table 2 of U.S. Pat. No. 6,177,121): 20%
- Egg production reduced down to (hens [4]; after feeding for 5-week): 70%
- Effect on the cholesterol content in eggs (hens [5]; according to U.S. Pat. No. 6,177,121): distinctly effective

Compound: CC[C@H](C)C(=O)O[C@H]1C[C@@H](C)C=C2C=C[C@H](C)[C@H](CC[C@@H]3C[C@@H](O)CC(=O)O3)[C@H]21 [lovastatin]
- Reduction in cholesterol content in eggs (hens [5]; dose of 0.03%): ~3.9%

Compound: pravastatin
- Egg production (ISA brown hens [2]; [6]): 84%
- Egg production (ISA brown hens [2]; [7]): 82%
- Egg production rate maintained (ISA brown hens [2]; after 6-week administration of pravastatin (0.003 and 0.03%)): above 80%
- Cholesterol content change (ISA brown hens [3]; [6]): −6%
- Cholesterol content change (ISA brown hens [3]; [7]): −24%

— US20110217412A1, “CHOLESTEROL LOWERING SUPPLEMENT AND LOW CHOLESTEROL EGG PRODUCED BY USING THE SAME” (JINIS BIOPHARMACEUTICALS CO., priority 2004, published 2011)
